Bounds are passed on as bounds.

The test has as its system soybean rust fungus (Phakopsora pachyrhizi). The test can be described thus: Test Example 7: soybean rust control, foliar spray on soybean. It is filed as in vivo. The settings on record: 200 ppm sprayed on soybean (KUROSENGOKU); inoculated after 2 days; assessed after 3 + 14 days.

Turning to `CON=C(C)c1cccc(OCc2c(C)cccc2-n2nnn(C)c2=O)n1` [compound 44], the “area of lesion on the treated plant relative to that on an untreated plant” value is on record as ≤ 30%.
